# Test results taken from article PMC8047011, “Enantiomers of 2-methylglutamate and 2-methylglutamine selectively impact mouse brain metabolism and behavior” (Scientific Reports, 2021).
# Tested on: C57Bl/6 mice
# Assay: Activity chamber open field
# Type: in vivo, mouse
# Details: acute 30 mg/kg IP, n = 6
# From the text: (§1) See Supplementary Methods for details. […]
# Activity Chamber Open Field: Assessment was made in an Open Field Activity Arena (Med Associates Inc., St. Albans, VT. Model ENV-515) mounted with three planes of infrared detectors within a specially designed sound-attenuating chamber (Med Associates Inc., St.
# Albans, VT. MED-017M-027). The arena was 43 cm (L) x 43 cm (W) x 30 cm (H) and the […]
# in the periphery and center of the Arena. […]
# without bedding, and in a sound isolating chamber. The activity chamber measures distance moved using infrared beams and without video recordings. […]
# were used in the study. The animals were housed as described above.
# The first dose was administered […]
# described above for 30 min.
row,SMILES,Distance moved in the activity chamber vs vehicle
1,"CC(N)(CCC(N)=O)C(=O)O (racemic) [rac-2MeGln, rac-2-methylglutamine]",modest but significant reduction in distance moved only at 11 min post injection
2,"C[C@@](N)(CCC(=O)O)C(=O)O [(R)-2MeGlu, (R)-2-methylglutamic acid]",modest but significant reduction in distance moved only at 11 min post injection
3,"C[C@](N)(CCC(=O)O)C(=O)O [(S)-2MeGlu, (S)-2-methylglutamic acid]",not significantly different

# Same assay, conditions: acute 100 mg/kg IP, n = 6
row,SMILES,Distance moved in the activity chamber vs vehicle
1,"CC(N)(CCC(N)=O)C(=O)O (racemic) [rac-2MeGln, rac-2-methylglutamine]",not significantly different from vehicle at any time point
2,"C[C@@](N)(CCC(=O)O)C(=O)O [(R)-2MeGlu, (R)-2-methylglutamic acid]",significantly reduced
3,"C[C@](N)(CCC(=O)O)C(=O)O [(S)-2MeGlu, (S)-2-methylglutamic acid]",significantly reduced

# Same assay, conditions: chronic 10 mg/kg/day IP, after one week
row,SMILES,Distance moved in the activity chamber
1,"CC(N)(CCC(N)=O)C(=O)O (racemic) [rac-2MeGln, rac-2-methylglutamine]",no significant effect of treatment
2,"C[C@@](N)(CCC(=O)O)C(=O)O [(R)-2MeGlu, (R)-2-methylglutamic acid]",no significant effect of treatment
3,"C[C@](N)(CCC(=O)O)C(=O)O [(S)-2MeGlu, (S)-2-methylglutamic acid]",no significant effect of treatment

# Tested on: C57Bl/6 mice
# Assay: Morris water maze
# Type: in vivo, mouse
# Details: chronic 10 mg/kg/day IP, weeks 2 and 3 of testing
# From the text: See Supplementary Methods for details.
# Elevated Plus Maze: The maze was made of acrylonitrile butadiene styrene (ABS) plastic and had two open arms and two close arms that were 30 cm long and 5 cm wide. The center area where the open and close arms meet was 5 cm x 5 cm. The open arms had 2 mm lips at the edges, and the closed arms had 15 cm opaque walls. The maze was elevated 50 cm and surrounded by privacy blinds during the test. The maze was illuminated to 7 lux using red light throughout the test. Each mouse was released in the center of the maze and given 5 min to explore the maze. Duration and frequency in each zone of the maze were recorded using Ethovision (Noldus Information Technology, Wageningen, the Netherlands) tracking software.
# Y Maze Spontaneous Alternation: The Y maze is made of plastic with 3 arms in a "Y" shape.
# The arms are labelled as Arm A, B, and C; Arm A is 20.32 cm (L) x 5 cm (W) 12.7 cm (H), Arm B and C are 15.24 cm (L) x 5 cm (W), and 12.7 cm (H). The test is based on the willingness of rodents to explore a novel environment and designed to measure spontaneous alternations in rodents. Each mouse was placed in the center of the maze facing Arm B. The first entry was excluded from data analysis because the animals were led to the initial arm entry by the experimenter. Using an overhead camera, the number of arm entries and alternations were recorded for 5 minutes. An arm entry is when all four paws enter into a new arm of the maze.
# The apparatus was cleaned with 1% Virkon. Parameters recorded were % alternation and the total number of entries into arms. The Y maze test was conducted after two weeks of exposure […]
# A ping pong ball was erected from the submerged platform and the mice were given two trials of Visible Platform Training to ensure they lacked gross sensorimotor deficit and visual impairment. The escape latency, distance moved, duration in zones, and velocity of the animals were recorded using Ethovision XT (Noldus Information Technology, Wageningen, Netherlands). […]
row,SMILES,Learning in the Morris water maze
1,"CC(N)(CCC(N)=O)C(=O)O (racemic) [rac-2MeGln, rac-2-methylglutamine]",no significant effect of treatment
2,"C[C@@](N)(CCC(=O)O)C(=O)O [(R)-2MeGlu, (R)-2-methylglutamic acid]",no significant effect of treatment
3,"C[C@](N)(CCC(=O)O)C(=O)O [(S)-2MeGlu, (S)-2-methylglutamic acid]",no significant effect of treatment

# Tested on: C57Bl/6 mice
# Assay: Fear conditioning
# Type: in vivo, mouse
# Details: chronic 10 mg/kg/day IP, week 4 of testing
# From the text: as §1
# Fear Conditioning: Coulbourn Instruments (Holliston, MA, USA) fear conditioning system and FreezeFrame software were used for analysis. The experiment consisted of 1 day of training, 1 day of contextual testing, and 1 day of cued testing. The training and contextual testing chambers were identical with similar context. The walls were made of aluminum. The floor was […]
# a gray metal grid through which the US was delivered, and the chambers used yellow color house light and were scented with mint extract to produce a unique smell in the chambers. The chambers were cleaned with a 10% simple green solution (Sunshine Makers, Inc.) between each mouse. The cued testing chambers were circular-shaped, made of plastic, used blue color house light, and were scented with vanilla extract to create a unique context different from training and contextual testing. This chamber was cleaned with 70% ethanol between each mouse. Both chambers were mounted within specially designed sound-attenuating chambers.
# Each chamber had speakers mounted on the wall and included an exhaust fan and camera. On Day 1 training, mice were placed individually into a training chamber for 200 seconds. A tone (20 seconds, 80 dB, 2 kHz) was presented to the mouse, followed by an electrical shock (intensity 0.5 mA, 2 seconds) 18 seconds after the end of the tone (Misane et al. 2005, Burman 2014, Lugo et al. 2014). This procedure was repeated two times with a 60 second interval from the end of the shock to the next tone. The mouse was removed from the chamber and returned to the home cage 60 seconds after the last shock. On Day 2, the mice were placed back into the training chamber without any tone or shock for contextual memory testing for 15 minutes. On Day 3, the mice were placed into the cued testing chamber with just tones (20 seconds, 80dB, 2 kHz) presented 3 times with 80 second intervals after 200 seconds of habituation. Overall, the mice received the tone and shock pairings only on the training day. An overhead camera was used to record mice freezing behavior. The fear conditioning test was conducted after four weeks of exposure to compounds or vehicle.
# We have shown when studying the cognitive enhancement in normal, young control mice, overtraining of the animals will lead to saturation of behavioral learning, making it very difficult to display pharmacological improvements in behavioral paradigms. We therefore chose less training trials per day and less number of training days in the Morris water maze to increase the likelihood of observing drug effects. Likewise, the fear conditioning task, we chose lower shock
SMILES,"Fear conditioning Day 1, learning of the tone-shock association","Fear conditioning Day 2, contextual recall vs vehicle","Fear conditioning Day 3, freezing during cued recall or tone presentation vs vehicle"
"CC(N)(CCC(N)=O)C(=O)O (racemic) [rac-2MeGln, rac-2-methylglutamine]",equivalent learning of the tone-shock association,no significant effect of treatments,no significant differences detected
"C[C@@](N)(CCC(=O)O)C(=O)O [(R)-2MeGlu, (R)-2-methylglutamic acid]",equivalent learning of the tone-shock association,no significant effect of treatments,no significant differences detected
"C[C@](N)(CCC(=O)O)C(=O)O [(S)-2MeGlu, (S)-2-methylglutamic acid]",equivalent learning of the tone-shock association,no significant effect of treatments,no significant differences detected
